Test results published in patent US20210254272A1, “TEXTILES HAVING ANTIMICROBIAL PROPERTIES” (Livinguard AG, priority 2015, published 2021).

Test: Leaching test: 100 g fabric soaked in 10 liters stagnant distilled water, 3 days (72 hours)
Assay type: physicochemical
Conditions: for Leaching of active ingredients: exhaust 80° C. 60 min, cured 180° C. 2 min, post wash
Experimental: The test procedure for leaching was as follows: 100 g (grams) of fabric as well as control fabrics were soaked in 10 liters of stagnant distilled water in a closed wide mouth jar. After 3 days (72 hours), the water samples were tested for leached substances as per standard analytical methods.
The test procedure for leaching was as follows: 100 g (grams) of fabric as well as control fabrics were soaked in 10 liters of stagnant distilled water in a closed wide mouth jar. After 3 days (72 hours), the water samples were tested for leached substances as per standard analytical methods. A weight of 100 g fabric was chosen because in the preferred embodiment of the water filter as described further below, each filter comprises a strip of fabric with 210 g/m^2, 3 meters long and 0.16 meters wide, which corresponds to 100 g of fabric.

## Silver
0.2% each in mixture (o.w.f), exhaust 80° C., 60 min, curing 180° C., 2 min, unwashed
  Leaching of active ingredients (in ppm): 7 ppm
0.5% each in mixture (o.w.f), exhaust 80° C., 60 min, curing 180° C., 2 min, unwashed
  Leaching of active ingredients (in ppm): 11 ppm
1.0% each in mixture (o.w.f), exhaust 80° C., 60 min, curing 180° C., 2 min, unwashed
  Leaching of active ingredients (in ppm): 18 ppm
Exhaust + Wash + pad + Wash, exhaust 0.1% o.w.f. each in mixture, 1 gm/liter pad
  Leeching in ppm: 0.3 ppm
Exhaust + Wash + pad + Wash, exhaust 0.1% o.w.f. each in mixture, 5 gm/liter pad
  Leeching in ppm: 0.5 ppm
Exhaust + Wash + pad + Wash, exhaust 0.1% o.w.f. each in mixture, 10 gm/liter pad
  Leeching in ppm: 0.6 ppm
Exhaust + Wash + pad + Wash, exhaust 0.25% o.w.f. each in mixture, 1 gm/liter pad
  Leeching in ppm: 3 ppm
Exhaust + Wash + pad + Wash, exhaust 0.25% o.w.f. each in mixture, 5 gm/liter pad
  Leeching in ppm: 7 ppm
Exhaust + Wash + pad + Wash, exhaust 0.25% o.w.f. each in mixture, 10 gm/liter pad
  Leeching in ppm: 16 ppm
Exhaust + Wash + pad + Wash, exhaust 0.5 (% o.w.f) each in mixture, 1 gm/liter pad
  Leeching in ppm: 8 ppm
Exhaust + Wash + pad + Wash, exhaust 0.5 (% o.w.f) each in mixture, 5 gm/liter pad
  Leeching in ppm: 14 ppm
Exhaust + Wash + pad + Wash, exhaust 0.5 (% o.w.f) each in mixture, 10 gm/liter pad
  Leeching in ppm: 22 ppm
Exhaust + Wash + pad + Wash, exhaust 1.0% o.w.f. each in mixture, 1 gm/liter pad
  Leeching in ppm: 14 ppm
Exhaust + Wash + pad + Wash, exhaust 1.0% o.w.f. each in mixture, 5 gm/liter pad
  Leeching in ppm: 23 ppm
Exhaust + Wash + pad + Wash, exhaust 1.0% o.w.f. each in mixture, 10 gm/liter pad
  Leeching in ppm: 28 ppm
Exhaust + pad + Wash, exhaust 0.1% o.w.f. each in mixture, 1 gm/liter pad
  Leeching in ppm: 145 ppm
Exhaust + pad + Wash, exhaust 0.1% o.w.f. each in mixture, 5 gm/liter pad
  Leeching in ppm: 235 ppm
Exhaust + pad + Wash, exhaust 0.1% o.w.f. each in mixture, 10 gm/liter pad
  Leeching in ppm: 254 ppm
Exhaust + pad + Wash, exhaust 0.25% o.w.f. each in mixture, 1 gm/liter pad
  Leeching in ppm: 223 ppm
Exhaust + pad + Wash, exhaust 0.25% o.w.f. each in mixture, 5 gm/liter pad
  Leeching in ppm: 257 ppm
Exhaust + pad + Wash, exhaust 0.25% o.w.f. each in mixture, 10 gm/liter pad
  Leeching in ppm: 534 ppm
Exhaust + pad + Wash, exhaust 0.5 (% o.w.f) each in mixture, 1 gm/liter pad
  Leeching in ppm: 456 ppm
Exhaust + pad + Wash, exhaust 0.5 (% o.w.f) each in mixture, 5 gm/liter pad
  Leeching in ppm: 573 ppm
Exhaust + pad + Wash, exhaust 0.5 (% o.w.f) each in mixture, 10 gm/liter pad
  Leeching in ppm: 645 ppm
Exhaust + pad + Wash, exhaust 1.0% o.w.f. each in mixture, 1 gm/liter pad
  Leeching in ppm: 534 ppm
Exhaust + pad + Wash, exhaust 1.0% o.w.f. each in mixture, 5 gm/liter pad
  Leeching in ppm: 654 ppm
Exhaust + pad + Wash, exhaust 1.0% o.w.f. each in mixture, 10 gm/liter pad
  Leeching in ppm: 849 ppm
Exhaust + pad, exhaust 0.1% o.w.f. each in mixture, 1 gm/liter pad
  Leeching in ppm: 208 ppm
Exhaust + pad, exhaust 0.1% o.w.f. each in mixture, 5 gm/liter pad
  Leeching in ppm: 298 ppm
Exhaust + pad, exhaust 0.1% o.w.f. each in mixture, 10 gm/liter pad
  Leeching in ppm: 362 ppm
Exhaust + pad, exhaust 0.25% o.w.f. each in mixture, 1 gm/liter pad
  Leeching in ppm: 320 ppm
Exhaust + pad, exhaust 0.25% o.w.f. each in mixture, 5 gm/liter pad
  Leeching in ppm: 321 ppm
Exhaust + pad, exhaust 0.25% o.w.f. each in mixture, 10 gm/liter pad
  Leeching in ppm: 387 ppm
Exhaust + pad, exhaust 0.5 (% o.w.f) each in mixture, 1 gm/liter pad
  Leeching in ppm: 398 ppm
Exhaust + pad, exhaust 0.5 (% o.w.f) each in mixture, 5 gm/liter pad
  Leeching in ppm: 453 ppm
Exhaust + pad, exhaust 0.5 (% o.w.f) each in mixture, 10 gm/liter pad
  Leeching in ppm: 801 ppm
Exhaust + pad, exhaust 1.0% o.w.f. each in mixture, 1 gm/liter pad
  Leeching in ppm: 595 ppm
Exhaust + pad, exhaust 1.0% o.w.f. each in mixture, 5 gm/liter pad
  Leeching in ppm: 749 ppm
Exhaust + pad, exhaust 1.0% o.w.f. each in mixture, 10 gm/liter pad
  Leeching in ppm: 1234 ppm
Exhaust +Wash + pad, exhaust 0.1% o.w.f. each in mixture, 1 gm/liter pad
  Leeching in ppm: 86 ppm
Exhaust +Wash + pad, exhaust 0.1% o.w.f. each in mixture, 5 gm/liter pad
  Leeching in ppm: 164 ppm
Exhaust +Wash + pad, exhaust 0.1% o.w.f. each in mixture, 10 gm/liter pad
  Leeching in ppm: 254 ppm
Exhaust +Wash + pad, exhaust 0.25% o.w.f. each in mixture, 1 gm/liter pad
  Leeching in ppm: 196 ppm
Exhaust +Wash + pad, exhaust 0.25% o.w.f. each in mixture, 5 gm/liter pad
  Leeching in ppm: 212 ppm
Exhaust +Wash + pad, exhaust 0.25% o.w.f. each in mixture, 10 gm/liter pad
  Leeching in ppm: 324 ppm
Exhaust +Wash + pad, exhaust 0.5 (% o.w.f) each in mixture, 1 gm/liter pad
  Leeching in ppm: 375 ppm
Exhaust +Wash + pad, exhaust 0.5 (% o.w.f) each in mixture, 5 gm/liter pad
  Leeching in ppm: 435 ppm
Exhaust +Wash + pad, exhaust 0.5 (% o.w.f) each in mixture, 10 gm/liter pad
  Leeching in ppm: 578 ppm
Exhaust +Wash + pad, exhaust 1.0% o.w.f. each in mixture, 1 gm/liter pad
  Leeching in ppm: 475 ppm
Exhaust +Wash + pad, exhaust 1.0% o.w.f. each in mixture, 5 gm/liter pad
  Leeching in ppm: 546 ppm
Exhaust +Wash + pad, exhaust 1.0% o.w.f. each in mixture, 10 gm/liter pad
  Leeching in ppm: 656 ppm
Exhaust 60° C., solution dosage 1% o.w.f, process time 60 min
  Leaching of active ingredients (in ppm): 21 ppm
Exhaust 60° C., solution dosage 1% o.w.f, process time 90 min
  Leaching of active ingredients (in ppm): 13 ppm
Exhaust 60° C., solution dosage 1% o.w.f, process time 120 min
  Leaching of active ingredients (in ppm): 13 ppm
Exhaust 60° C., solution dosage 1% o.w.f, process time 180 min
  Leaching of active ingredients (in ppm): 12 ppm
Exhaust 60° C., solution dosage 1% o.w.f, process time 240 min
  Leaching of active ingredients (in ppm): 15 ppm
Mixture 0.2% o.w.f. each
  Leaching of active ingredients: 0.3 ppm
Mixture 0.5% o.w.f. each
  Leaching of active ingredients: 0.5 ppm
Mixture 1% o.w.f. each
  Leaching of active ingredients: 0.9 ppm
Exhaust 80° C., 1% o.w.f, 60 min, curing 170° C., curing dwell time 0.5 min
  Leaching of active ingredients (in ppm): 28 ppm
Exhaust 80° C., 1% o.w.f, 60 min, curing 170° C., curing dwell time 1.0 min
  Leaching of active ingredients (in ppm): 24 ppm
Exhaust 80° C., 1% o.w.f, 60 min, curing 170° C., curing dwell time 1.5 min
  Leaching of active ingredients (in ppm): 21 ppm
Exhaust 80° C., 1% o.w.f, 60 min, curing 170° C., curing dwell time 2.0 min
  Leaching of active ingredients (in ppm): 13 ppm
Exhaust 80° C., 1% o.w.f, 60 min, curing 170° C., curing dwell time 2.5 min
  Leaching of active ingredients (in ppm): 19 ppm
Exhaust 80° C., 1% o.w.f, 60 min, curing 170° C., curing dwell time 3.0 min
  Leaching of active ingredients (in ppm): 19 ppm
Exhaust 80° C., 1% o.w.f, 60 min, curing 180° C., curing dwell time 0.5 min
  Leaching of active ingredients (in ppm): 21 ppm
Exhaust 80° C., 1% o.w.f, 60 min, curing 180° C., curing dwell time 1.0 min
  Leaching of active ingredients (in ppm): 13 ppm
Exhaust 80° C., 1% o.w.f, 60 min, curing 180° C., curing dwell time 1.5 min
  Leaching of active ingredients (in ppm): 13 ppm
Exhaust 80° C., 1% o.w.f, 60 min, curing 180° C., curing dwell time 2.0 min
  Leaching of active ingredients (in ppm): 4 ppm
Exhaust 80° C., 1% o.w.f, 60 min, curing 180° C., curing dwell time 2.5 min
  Leaching of active ingredients (in ppm): 12 ppm
Exhaust 80° C., 1% o.w.f, 60 min, curing 180° C., curing dwell time 3.0 min
  Leaching of active ingredients (in ppm): 12 ppm
Exhaust 80° C., 1% o.w.f, 60 min, curing dwell time at 190° C. (title): 0.5 min
  Leaching of active ingredients (in ppm): 18 ppm
Exhaust 80° C., 1% o.w.f, 60 min, curing dwell time at 190° C. (title): 1.0 min
  Leaching of active ingredients (in ppm): 12 ppm
Exhaust 80° C., 1% o.w.f, 60 min, curing dwell time at 190° C. (title): 1.5 min
  Leaching of active ingredients (in ppm): 10 ppm
Exhaust 80° C., 1% o.w.f, 60 min, curing dwell time at 190° C. (title): 2.0 min
  Leaching of active ingredients (in ppm): 10 ppm
Exhaust 80° C., 1% o.w.f, 60 min, curing dwell time at 190° C. (title): 2.5 min
  Leaching of active ingredients (in ppm): 24 ppm
Exhaust 80° C., 1% o.w.f, 60 min, curing dwell time at 190° C. (title): 3.0 min
  Leaching of active ingredients (in ppm): 35 ppm
